The nature of series [1]: Determination of metabolic stability with human liver microsomes. Particulars: human, pooled human liver microsomes, pH 7.6.
Protocol: Determination of Metabolic Stability with Human Liver Microsomes
The metabolic degradation of the test compound is assayed at 37° C. with pooled human liver microsomes. The final incubation volume of 100 μl per time point contains TRIS buffer pH 7.6 (0.1 M), magnesium chloride (5 mM), microsomal protein (1 mg/ml) and the test compound at a final concentration of 1 μM. Following a short preincubation period at 37° C., the reactions are initiated by addition of beta-nicotinamide adenine dinucleotide phosphate, reduced form (NADPH, 1 mM) and terminated by transferring an aliquot into acetonitrile after different time points. Additionally, the NADPH-independent degradation is monitored in incubations without NADPH, terminated at the last time point. The [%] remaining test compound after NADPH independent incubation is reflected by the parameter c (control) (metabolic stability). The quenched incubations are pelleted by centrifugation (10,000 g, 5 min). An aliquot of the supernatant is assayed by LC-MS/MS for the amount of parent compound.
The half-life (t½ INVITRO) is determined by the slope of the semilogarithmic plot of the concentration-time profile.
Series [2] deals with recombinant human Cathepsin K (Homo sapiens (Human), UniProt P43235). Kind of series: Inhibition of human Cathepsin K. The series is classed as biochemical. Particulars: substrate Z-Gly-Pro-Arg-AMC. The essentials: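 Proenzyme activated in pH 3.5 sodium acetate for 30 min at room temperature. Enzyme (2 ng/μL final) preincubated 10 min with compound (0.1 nM–100 μM, 1% DMSO) in pH 5.5 acetate/EDTA/L-cysteine buffer, then reacted 60 min at room temperature with Z-Gly-Pro-Arg-AMC. Stopped with 1 μM E64; fluorescence Ex 360/Em 460 nm; IC50 from background-subtracted percent of vehicle control.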
Chain of recombinant human Cathepsin K (P43235 115-329): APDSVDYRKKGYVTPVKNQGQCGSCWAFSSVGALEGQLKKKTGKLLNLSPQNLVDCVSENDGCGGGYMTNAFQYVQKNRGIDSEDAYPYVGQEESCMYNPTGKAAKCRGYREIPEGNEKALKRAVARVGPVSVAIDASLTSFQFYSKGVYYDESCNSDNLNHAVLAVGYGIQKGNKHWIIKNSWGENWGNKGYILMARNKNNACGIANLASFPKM

Series [3] concerns the target recombinant human DPPI (Cathepsin C) (Homo sapiens (Human), UniProt P53634). Briefly: Inhibition of human DPPI (Cathepsin C). The series is classed as biochemical. To be noted: substrate Gly-Arg-AMC. The essentials: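 Recombinant human DPPI in MES buffer pH 6.0 (5 mM DTT, 0.1% BSA); fluorogenic substrate at 50 μM final, 30 min at room temperature, stopped with 1 μM Gly-Phe-DMK. Background-subtracted fluorescence expressed as percent of vehicle control; IC50 derived.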

The structures appear in SMILES notation. Where only a bound is given, the exact number is not on record here.

Data on 15 molecules can be found in patent publication US8987249B2, “Substituted 2-Aza-bicyclo[2.2.1]heptane-3-carboxylic acid (benzyl-cyano-methyl)-amides inhibitors of Cathepsin C” (Boehringer Ingelheim International GmbH, priority 2013, dated 2015).

As usually defined, the half-life is the time needed for the level to fall by half in the phase considered. Usually IC50 stands for the point on the concentration scale where inhibition reaches its midpoint.

Chain of recombinant human DPPI (Cathepsin C) (P53634 231-394): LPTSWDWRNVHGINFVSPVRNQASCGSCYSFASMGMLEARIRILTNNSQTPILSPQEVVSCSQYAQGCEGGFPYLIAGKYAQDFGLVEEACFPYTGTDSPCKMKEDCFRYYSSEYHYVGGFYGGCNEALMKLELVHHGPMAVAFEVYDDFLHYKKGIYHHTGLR
Chain of recombinant human DPPI (Cathepsin C) (P53634 395-463): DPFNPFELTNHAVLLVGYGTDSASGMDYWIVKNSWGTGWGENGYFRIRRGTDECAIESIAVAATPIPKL
Chain of recombinant human DPPI (Cathepsin C) (P53634 25-134): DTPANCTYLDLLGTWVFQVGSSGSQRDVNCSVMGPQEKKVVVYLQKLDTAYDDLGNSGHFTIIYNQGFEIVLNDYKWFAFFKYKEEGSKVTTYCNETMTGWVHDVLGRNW

In series [1], `CN1CCC(Oc2ccc(C[C@@H](C#N)NC(=O)[C@H]3N[C@@H]4CC[C@H]3C4)c(F)c2)CC1` [Example 319, (1S,2S,4R)—N-[(1S)-1-cyano-2-[2-fluoro-4-[(1-methyl-4-piperidyl)oxy]phenyl]ethyl]-3-azabicyclo[2.2.1]heptane-2-carboxamide] displayed a half-life at 1 μM above 130 min. The IC50 amounted to 4.5 µM in series [2] and 17.5 nM in series [3].

Take `N#CC(Cc1cc2c(=O)[nH]c3ccccc3c2cc1F)NC(=O)[C@H]1N[C@@H]2CC[C@H]1C2` (stereo partly drawn) [Example 294]: the half-life at 1 μM in series [1] was above 130 min. The half-inhibitory concentration (IC50) was 2.2 µM in series [2] and 1.6 nM in series [3].

In series [1], `CS(=O)(=O)c1cccc(-c2ccc(C[C@@H](C#N)NC(=O)[C@H]3N[C@@H]4CC[C@H]3C4)c(F)c2)c1` [Example 4, (1S,2S,4R)—N-[(1S)-1-cyano-2-[2-fluoro-4-(3-methylsulfonylphenyl)phenyl]ethyl]-3-azabicyclo[2.2.1]heptane-2-carboxamide] yielded a half-life at 1 μM above 130 min. Moreover, the figures for the IC50 in series [2] and in series [3] were 2.6 µM and 1.4 nM, respectively.

In the case of `N#C[C@H](Cc1ccc(-n2cc(C3CC3)nn2)cc1F)NC(=O)[C@H]1N[C@@H]2CC[C@H]1C2` [Example 67], the half-life at 1 μM in series [1] is 89 min. Besides, the IC50 in series [2] amounted to 4.6 µM; in series [3], 9.6 nM.

Turning to `N#C[C@H](Cc1ccc(-c2cc(C(=O)N3CCn4nccc4C3)co2)cc1F)NC(=O)[C@H]1N[C@@H]2CC[C@H]1C2` [Example 240], the half-life at 1 μM in series [1] is 110 min. In addition, the values for the concentration for half-maximal inhibition (IC50) in series [2] and in series [3] were 9.4 µM and 6.1 nM, respectively.

Molecule `CCC(C)(O)Cc1cn(-c2ccc(C[C@@H](C#N)NC(=O)[C@H]3N[C@@H]4CC[C@H]3C4)c(F)c2)nn1` (stereo partly drawn) [Example 82] yielded a half-life at 1 μM in series [1] above 130 min. Moreover, the figures for the 50% inhibitory concentration (IC50) in series [2] and in series [3] were 5.4 µM and 13.1 nM, respectively.

In turn, `N#CC(Cc1ccc(-c2cccc(C(N)=O)c2)cc1F)NC(=O)[C@H]1N[C@@H]2CC[C@H]1C2` (stereo partly drawn) [Example 53] displayed a half-life at 1 μM in series [1] above 130 min. The IC50 is 4.1 µM in series [2] and 7.9 nM in series [3].

`N#C[C@H](Cc1ccc(-c2cccc(C(N)=O)c2)cc1F)NC(=O)[C@H]1N[C@@H]2CC[C@H]1C2` [Example 244]: the half-life at 1 μM in series [1] worked out at 92 min. In addition, the results for the IC50 in series [2] and in series [3] were 2 µM and 3.7 nM, respectively.

In series [1], `COCc1cn(-c2ccc(C[C@@H](C#N)NC(=O)[C@H]3N[C@@H]4CC[C@H]3C4)c(F)c2)nn1` [Example 111] came in with a half-life at 1 μM above 130 min. The IC50 in series [2] turned out to be 4.3 µM; in series [3], 31.8 nM.

`N#C[C@H](Cc1ccc(-n2cc(COc3ccccc3)nn2)cc1F)NC(=O)[C@H]1N[C@@H]2CC[C@H]1C2` [Example 47]: the half-life at 1 μM in series [1] is 84 min. The figures for the concentration for half-maximal inhibition (IC50) in series [2] and in series [3] were 3.4 µM and 7.2 nM, respectively.

On to `COCCOCc1cn(-c2ccc(C[C@@H](C#N)NC(=O)[C@H]3N[C@@H]4CC[C@H]3C4)c(F)c2)nn1` [Example 112], for which, in series [1], the half-life at 1 μM is above 130 min. Also, the IC50 is 5.6 µM in series [2] and 33.3 nM in series [3].

In turn, `CN1CCN(C(=O)c2cc(-c3ccc(C[C@@H](C#N)NC(=O)[C@H]4N[C@@H]5CC[C@H]4C5)c(F)c3)cs2)CC1=O` [Example 233] gave a half-life at 1 μM in series [1] above 130 min. The IC50 came to 3 µM in series [2] and 2.2 nM in series [3].

The molecule `Cn1nc(C(F)(F)F)cc1-c1ccc(C[C@@H](C#N)NC(=O)[C@H]2N[C@@H]3CC[C@H]2C3)c(F)c1` [Example 100] had a half-life at 1 μM in series [1] above 130 min. Moreover, the IC50 in series [2] turned out to be 8.2 µM; in series [3], 22.3 nM.

For the molecule `N#C[C@H](Cc1ccc(-c2cnn(C[C@@H]3CCOC3)c2)cc1F)NC(=O)[C@H]1N[C@@H]2CC[C@H]1C2` [Example 262], the half-life at 1 μM in series [1] was above 120 min. Moreover, the IC50 is 2.8 µM in series [2] and 6.4 nM in series [3].

`N#Cc1ccc(-c2ccc(C[C@@H](C#N)NC(=O)[C@H]3N[C@H]4C[C@@H]3[C@@H]3C[C@@H]34)c(F)c2)cc1F` [Example 132] came in with a half-life at 1 μM in series [1] above 130 min. The half-inhibitory concentration (IC50) in series [2] amounted to 12.2 µM; in series [3] it was 18.9 nM.
